Measurements published in US12048691B2 (SPERO THERAPEUTICS, INC., priority 2020, dated 2024).
Values after ≈ are worked out from the molar mass of the structure shown. Where two headings read alike, the source gives them in different places.

Legend:
Enterobacterales (ENT) = assay: Broth microdilution against US UTI pathogens 2019-2020; format: cell-based
Protocol: (§1) This study assessed the in vitro activity of tebipenem and comparator agents against Enterobacterales (ENT) responsible for UTIs in the US during 2019-2020. A total of 3,576 ENT recovered from urine samples during the 2019-2020 STEWARD Surveillance Program were included in the study. Isolates were collected from medical centers in all 9 US Census Regions and were centrally tested for susceptibility by reference broth microdilution method. MIC interpretation was performed based on CLSI criteria.

K. pneumoniae = assay: as above; format: cell-based; details: K. pneumoniae (511)
Protocol: as §1

E. coli [1] = assay: as above; format: cell-based; details: E. coli (2,339); cefuroxime: oral breakpoint
Protocol: as §1

P. mirabilis = assay: as above; format: cell-based; details: P. mirabilis (235), cefuroxime: oral breakpoint
Protocol: as §1

[2] = test system: Enterobacterales overproducing AmpC; assay: Broth microdilution susceptibility of isolates overexpressing AmpC; format: cell-based
Protocol: Frozen-form broth microdilution panels were manufactured by JMI Laboratories and contained cation-adjusted Mueller-Hinton broth. Quality assurance was performed by sterility checks, colony counts, and testing CLSI recommended quality control reference strains.

[3] = test system: other methicillin-susceptible coagulase-negative staphylococci (MSCONS); assay: Broth microdilution against Gram-positive clinical isolates; format: cell-based; details: 29 isolates
Protocol: The purpose of this study was to investigate the in vitro activity of tebipenem and comparator agents, including ertapenem and meropenem, against a recent collection of Gram-positive isolates associated with clinical infections. The susceptibility of 580 Gram-positive organisms were tested, including: […] Bacterial species were identified by JMI Laboratories using standard microbiology methods and matrix-assisted laser desorption ionization-time of flight mass spectrometry (Bruker Daltonics, Bremen, Germany). […] Isolates were tested in a central laboratory (JMI Laboratories) for antimicrobial susceptibility using the CLSI […] (2018) reference broth microdilution method. JMI Laboratories produced frozen-form 96-well panels and used cation-adjusted Mueller-Hinton broth (CA-MHB) as the testing medium. […] Quality control organisms include Escherichia coli ATCC 25922, Escherichia coli ATCC 35218, Enterococcus faecalis ATCC 29212, Pseudomonas aeruginosa ATCC 27853, and Staphylococcus aureus ATCC 29213 were tested concurrently with clinical isolates.

[4] = test system: bacteremia secondary to cUTI/AP; assay: Efficacy in patients with cUTI or acute pyelonephritis and associated bacteremia; format: in vivo, human
From the text: The objective of this analysis was to evaluate the efficacy of TBP-PI-HBr in the subset of patients with associated bacteremia from a study of patients with either cUTI or acute pyelonephritis.

E. coli [5] = assay: Susceptibility of E. coli from urinary tract infections, 18 EU countries 2020 (STEWARD); format: cell-based
Protocol: The study assessed the prevalence of resistance and evaluated the activity of oral tebipenem (TBP) and comparators against EC from urinary tract infections.
Results were interpreted using EUCAST criteria. […] ESBL phenotypes were determined by CLSI criteria and sequenced to identify CTX-M-15 genotype and clonal complex ST131.

E. coli [6] = assay: Broth microdilution MIC against characterized subsets of UTI E. coli (2018-2020); format: cell-based; details: for MIC50 / MIC90: Escherichia coli; for MIC50: read-out: MIC50; for MIC90: read-out: MIC90
From the text: Isolates were collected from medical centers in all 9 US Census Regions and tested by broth microdilution. MIC interpretation was based on CLSI. Isolates that met MIC criteria were subjected to genome sequencing, followed by screening of extended-spectrum b-lactamase (ESBL) genes and epidemiology typing (MLST).

[7] = test system: Methicillin-susceptible Staphylococcus aureus (MSSA); assay: Broth microdilution against Gram-positive clinical isolates; format: cell-based; details: Staphylococcus aureus, 489 isolates
Protocol: (§2) The purpose of this study was to investigate the in vitro activity of tebipenem and comparator agents, including ertapenem and meropenem, against a recent collection of Gram-positive isolates associated with clinical infections. The susceptibility of 580 Gram-positive organisms were tested, including: Methicillin-susceptible Staphylococcus aureus (MSSA, 489 isolates), Methicillin-susceptible Staphylococcus epidermidis (MSSE, 31), other methicillin-susceptible coagulase-negative staphylococci (MSCONS, 29), and Vancomycin-susceptible Enterococcus faecalis (31). Bacterial species were identified by JMI Laboratories using standard microbiology methods and matrix-assisted laser desorption ionization-time of flight mass spectrometry (Bruker Daltonics, Bremen, Germany). The isolates were collected in 2018 and 2019 as part of the SENTRY surveillance program and selected to be representative of these species with 45.0% from the United States, 44.3% from Europe, 5.3% from the Asia-Pacific region, and 5.3% from Latin America. Isolates are primarily from pneumonia in hospitalized patients (498 isolates; 85.9%), urinary tract infections (42 isolates; 7.2%), and bloodstream infections (38 isolates; 6.6%). Isolates were tested in a central laboratory (JMI Laboratories) for antimicrobial susceptibility using the CLSI M07 (2018) reference broth microdilution method. JMI Laboratories produced frozen-form 96-well panels and used cation-adjusted Mueller-Hinton broth (CA-MHB) as the testing medium. All categorical interpretations used CLSI M100 (2021) and EUCAST v10.0 (2021) breakpoint criteria, where published. Quality control organisms include Escherichia coli ATCC 25922, Escherichia coli ATCC 35218, Enterococcus faecalis ATCC 29212, Pseudomonas aeruginosa ATCC 27853, and Staphylococcus aureus ATCC 29213 were tested concurrently with clinical isolates.

[8] = test system: Methicillin-susceptible Staphylococcus epidermidis (MSSE); assay: as above; format: cell-based; details: Staphylococcus epidermidis, 31 isolates
Protocol: as §2

[9] = test system: Vancomycin-susceptible Enterococcus faecalis; assay: as above; format: cell-based; details: Enterococcus faecalis; E. faecalis, 31 isolates
Protocol: as §2

Q: Which MIC50 (Enterobacterales (ENT)) does the source give for `C[C@@H](O)[C@H]1C(=O)N2C(C(=O)O)=C(S[C@@H]3CN[C@H](C(=O)Nc4cccc(C(=O)O)c4)C3)[C@H](C)[C@H]12` [Ertapenem, ertapenem] here?
A: ≤ 8 µg/mL

Q: What about the MIC90 (Enterobacterales (ENT); All (3,567)) of the same molecule?
A: 30 µg/mL (≈ 63.1 µM)

Q: And the “% susceptible; CLSI” value (Enterobacterales (ENT); All (3,567), cefuroxime: oral breakpoint)?
A: (98.5) %

Q: And the MIC90 (Enterobacterales (ENT); against ENT, EC, and KPN)?
A: 0.03 µg/mL (≈ 0.0631 µM)

Q: And the “% susceptible; CLSI” value (K. pneumoniae; cefuroxime: oral breakpoint)?
A: (96.3) %

Q: And the MIC50 (K. pneumoniae; Klebsiella pneumoniae, read-out: MIC50)?
A: ≤ 8 µg/mL

Q: And the “% susceptible; CLSI” value (E. coli [1])?
A: (99.6) %

Q: And the “% susceptible; CLSI” value (P. mirabilis)?
A: (100.0) %

Q: What about the “% susceptible; CLSI” value (P. mirabilis; listed as ERT) of the same molecule?
A: 100.0%

Q: What about the MIC50 [2] of the same molecule?
A: 0.12 µg/mL (≈ 0.252 µM)

Q: And the MIC90 [2]?
A: 2 µg/mL (≈ 4.21 µM)

Q: And the “CLSI %1” value ([2]; Enterobacterales (36))?
A: 8.3%

Q: And the “CLSI % R” value ([2]; Enterobacterales (36))?
A: 11.1%

Q: And the “CLSI % S” value ([2]; Enterobacterales (36))?
A: 80.6%

Q: And the MIC50 ([2]; Enterobacterales (36))?
A: 0.12 μ/ml

Q: And the MIC90 ([2]; Enterobacterales (36))?
A: 2 μ/ml

Q: And the MIC90 [3]?
A: 1 µg/mL (≈ 2.1 µM)

Q: What about the Clinical cure rate ([4]; EOT) of the same molecule?
A: 100%

Q: And the Clinical cure rate ([4]; TOC)?
A: 94.3%

Q: And the Overall response rate ([4]; end-of-treatment (EOT))?
A: 96.2%

Q: And the Clinical cure rate ([4]; late-follow-up (LFU) visit)?
A: approximately 89%

Q: And the Overall response rate ([4]; test-of-cure (TOC))?
A: 66.0%

Q: And the MIC90 (E. coli [5]; Escherichia coli, all E. coli (764) from UTIs)?
A: 0.03 µg/mL (≈ 0.0631 µM)

Q: What about the Susceptibility rate (E. coli [5]; all E. coli, EUCAST criteria) of the same molecule?
A: 99.9%

Q: And the “% susceptible by CLSI M100 criteria” value (E. coli [6]; CMYb (33))?
A: 90.6%

Q: What about the “% susceptible by CLSI M100 criteria” value (E. coli [6]; CTX-M a) of the same molecule?
A: 98.9%

Q: What about the “% susceptible by CLSI M100 criteria” value (E. coli [6]; DHA(7)) of the same molecule?
A: 85.7%

Q: What about the “% susceptible by CLSI M100 criteria” value (E. coli [6]; ESBL (360)) of the same molecule?
A: 97.4%

Q: What about the MIC50 (E. coli [6]; CMYb (33)) of the same molecule?
A: 0.06 µg/mL (≈ 0.126 µM)

Q: And the MIC50 (E. coli [6]; CTX-M a)?
A: 0.03 µg/mL (≈ 0.0631 µM)

Q: What about the MIC90 (E. coli [6]; CTX-M a) of the same molecule?
A: 0.12 µg/mL (≈ 0.252 µM)

Q: And the MIC50 (E. coli [6]; DHA(7))?
A: 0.06 µg/mL (≈ 0.126 µM)

Q: What about the MIC50 (E. coli [6]; ESBL (360)) of the same molecule?
A: 0.03 µg/mL (≈ 0.0631 µM)

Q: And the MIC90 (E. coli [6]; ESBL (360))?
A: 0.12 µg/mL (≈ 0.252 µM)

Q: And the MIC50 (E. coli [6]; Non-ESBL (2035))?
A: ≤ 0.008 µg/mL

Q: And the MIC90 (E. coli [6]; Non-ESBL (2035))?
A: 0.015 µg/mL (≈ 0.0315 µM)

Q: What about the MIC50 (E. coli [6]; Non-ST131 (203)) of the same molecule?
A: 0.015 µg/mL (≈ 0.0315 µM)

Q: What about the MIC90 (E. coli [6]; ST131 (222)) of the same molecule?
A: 0.06 µg/mL (≈ 0.126 µM)

Q: What about the “% susceptible by CLSI M100 criteria” value (E. coli [6]; Non-ESBL (2035)) of the same molecule?
A: 100%

Q: What about the “% susceptible by CLSI M100 criteria” value (E. coli [6]; Non-ST131 (203)) of the same molecule?
A: 97.0%

Q: And the “% susceptible by CLSI M100 criteria” value (E. coli [6]; ST131 (222))?
A: 99.1%

Q: What about the “% susceptible” value (E. coli [6]; against the various subsets) of the same molecule?
A: ≥ 97.0%

Q: And the susceptibility rates (E. coli [6]; isolates carrying plasmid AmpC)?
A: 85.7-90.6%

Q: And the MIC90 [7]?
A: 0.25 µg/mL (≈ 0.526 µM)

Q: And the MIC90 [8]?
A: 0.5 µg/mL (≈ 1.05 µM)

Q: What about the MIC90 [9] of the same molecule?
A: > 8 µg/mL
